Results reported in PubChem BioAssay (NCI).
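Values below derive from 48-hour exposures of cells grown in 96-well plates, with endpoints linearly interpolated between the two concentrations bracketing the appropriate inhibition level. GI50 = concentration required for 50% inhibition of growth. TGI: concentration producing complete growth inhibition.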

Experiments:
Experiment in all cases: NCI-60 cell line screen, 48 h
[1] = system: CAKI-1 renal
[2] = system: COLO 205 colon
[3] = system: HCC-2998 colon
[4] = system: M14 melanoma
[5] = system: NCI-H226 lung
[6] = system: OVCAR-5 ovarian
[7] = system: RPMI-8226 leukemia
[8] = system: SR leukemia
[9] = system: T-47D breast
[10] = system: U251 CNS

Row | Structure (SMILES) | GI50 [1] [µM] | TGI [1] [µM] | GI50 [2] [µM] | TGI [2] [µM] | GI50 [3] [µM] | TGI [3] [µM] | GI50 [4] [µM] | TGI [4] [µM] | GI50 [5] [µM] | TGI [5] [µM] | GI50 [6] [µM] | TGI [6] [µM] | GI50 [7] [µM] | TGI [7] [µM] | GI50 [8] [µM] | TGI [8] [µM] | GI50 [9] [µM] | TGI [9] [µM] | GI50 [10] [µM] | TGI [10] [µM]
1 | C=C1N(C)c2ccc(Cl)cc2C1(C)C | 19.2 | 68.5 | 2.1 | 4.36 | 6.25 | > 100 | 5.73 | 24.5 | 16.4 | > 100 | 31 | > 100 | 2.56 | 10.4 | 2.74 | 8.94 | 3.54 | > 100 | 3.68 | 57.2
2 | N=c1ccn2c(n1)O[C@@H]1[C@@H](O)[C@H](CO)O[C@@H]12 | – | > 100 | 2.41 | > 100 | 21.2 | > 100 | 0.428 | 3.39 | 3.52 | > 100 | 49.3 | > 100 | > 100 | > 100 | 0.962 | 21 | 8.96 | > 100 | 6.89 | > 100
3 | C[C@]12CC[C@H]3[C@@H](C[C@@H]4N=C(c5ccc(O)cc5)S[C@@]45C[C@H](O)CC[C@]35C)[C@@H]1CC[C@@H]2O | 4.12 | > 100 | 9.14 | > 100 | 31.9 | > 100 | 2.86 | 29.3 | 27.4 | > 100 | 13.3 | > 100 | 0.378 | 2.5 | 1.37 | 33.8 | 10.3 | > 100 | 2.23 | 67.3
4 | O=C(Nc1ccc(Br)cc1F)c1cc(Br)ccc1O | 0.456 | 4.11 | 2.95 | 9.11 | 2.87 | 10.8 | 0.713 | 5.48 | 0.688 | 7.76 | 2.97 | 33.3 | 0.322 | 2.02 | 2.07 | 11.8 | 0.457 | 6.87 | 0.64 | 13.3
5 | O=C(CN1CCN(c2ccc(Cl)cc2)CC1)N1CCN(c2nnc(-c3ccccc3)c(-c3ccccc3)n2)CC1 | 4.93 | > 100 | 3.47 | > 100 | 9.29 | > 100 | > 100 | > 100 | > 100 | > 100 | > 100 | > 100 | 2.77 | > 100 | 2.73 | 15.7 | 2 | > 100 | 8.02 | > 100
6 | Cc1ccccc1/C=C1\CN(C(=O)OC(C)(C)C)C/C(=C\c2ccccc2C)C1=O | 2.06 | 4.25 | 2.22 | 5.25 | 1.94 | 3.78 | 2.97 | 13.5 | 2.01 | 4.14 | 2.16 | 4.86 | 1.66 | 5.37 | 1.89 | > 100 | 3.78 | > 100 | 1.82 | 3.95
7 | Cc1ccc(S(=O)(=O)n2cc(-c3nnnn3-c3ccc(Cl)cc3)c(=O)c3ccccc32)cc1 | > 100 | > 100 | 93 | > 100 | > 100 | > 100 | 49.5 | > 100 | > 100 | > 100 | > 100 | > 100 | 21.9 | 59 | 40.9 | > 100 | 57.9 | > 100 | 88.6 | > 100
8 | O=C(/C=C/c1cccnc1)c1ccccc1O | 17.3 | 42.4 | 14.6 | 30.1 | 16.2 | 30 | 16.9 | 34.1 | 20 | 51.7 | 19 | 46.7 | 12.9 | 39 | 12.3 | 64.6 | 21 | > 100 | 22.2 | 81.1
9 | COc1ccc(/C=C/C(=O)c2ccc(Nc3ccnc4cc(Cl)ccc34)cc2)cc1 | > 100 | > 100 | 70.2 | > 100 | > 100 | > 100 | > 100 | > 100 | > 100 | > 100 | > 100 | > 100 | 4.94 | > 55.6 | 2.24 | 10.1 | > 100 | > 100 | > 100 | > 100
10 | O=[N+]([O-])c1ccc(-c2cn(-c3ccc(Cl)cc3)cn2)cc1 | – | > 100 | – | > 100 | – | > 100 | – | > 100 | – | > 100 | – | > 100 | – | > 100 | – | > 100 | – | > 100 | – | > 100
11 | COc1cc(NC(N)=NCCC(C)(C)c2ccc(C(F)(F)F)cc2)ncc1C#N | 1.42 | 2.74 | 1.65 | 3.21 | 1.89 | 3.34 | 1.7 | 3.24 | 1.6 | 3.36 | 1.97 | 3.76 | 1.27 | 3.3 | 1.7 | 4.06 | 1.51 | 3.5 | 1.67 | 3.05
12 | COc1ccc(Cn2c(Br)c3c(c2-c2cc(OC)c(OC)c(OC)c2)CCc2sc(NC(C)=O)nc2-3)cc1 | 4.21 | > 100 | 2.53 | 5.78 | 3.58 | > 100 | 3.57 | > 100 | 39.3 | > 100 | 4.39 | > 100 | 4.23 | > 100 | 2.44 | > 100 | 4.65 | > 100 | 3.69 | > 100
